The record followed here is patent US5795907A, “Gastin and CCK receptor ligands” (James Black Foundation Limited, priority 1994, dated 1998).

One assay addresses T1, CCKB receptor (Mus musculus, UniProt P56481).
T1 construct: The cortex was dissected, weighed and homogenised in 40ml ice-cold buffer; tissue Charles River (supplier of the CD1 mice); host or cells: cerebral cortex membranes of male CD1 mice
T1 sequence (P56481 1-453): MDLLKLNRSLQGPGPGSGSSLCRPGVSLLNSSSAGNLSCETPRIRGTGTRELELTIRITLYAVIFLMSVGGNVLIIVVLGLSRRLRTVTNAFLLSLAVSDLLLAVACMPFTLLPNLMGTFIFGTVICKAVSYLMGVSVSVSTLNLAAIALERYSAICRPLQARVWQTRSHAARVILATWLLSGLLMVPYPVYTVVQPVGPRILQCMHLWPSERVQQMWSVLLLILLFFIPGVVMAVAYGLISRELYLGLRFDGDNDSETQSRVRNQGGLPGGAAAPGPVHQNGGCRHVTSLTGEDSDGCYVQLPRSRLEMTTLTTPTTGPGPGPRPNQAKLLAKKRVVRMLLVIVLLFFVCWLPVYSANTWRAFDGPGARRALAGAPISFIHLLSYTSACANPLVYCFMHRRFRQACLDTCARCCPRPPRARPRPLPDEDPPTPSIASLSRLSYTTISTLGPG
The assay is described as follows: CCKB receptor radioligand binding assay in mouse cortical membranes ([125I]-CCK8S). The note with it: [125I]-CCK8S 200 pM, 150 min at 21±3°; for Ki: read-out: CCKB pKi (converted). In outline:
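This was competition binding with tracer [125I]-CCK8S (200 pM solution added), run for 150 min at 21±3° on male CD1 mouse cortex membranes in pH 7.2 HEPES buffer with bacitracin. Filtration then gamma counting gave bound radioactivity. L-365,260 set the non-specific level.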

The next assay concerns the target T2, gastrin (Rattus norvegicus, UniProt P30553).
T2 construct: The stomach was lowered into a jacketed organ bath containing 40 ml of buffered solution; from tissue; host or cells: isolated perfused whole stomach of immature rats (ca. 21 days old)
T2 sequence (P30553 1-452): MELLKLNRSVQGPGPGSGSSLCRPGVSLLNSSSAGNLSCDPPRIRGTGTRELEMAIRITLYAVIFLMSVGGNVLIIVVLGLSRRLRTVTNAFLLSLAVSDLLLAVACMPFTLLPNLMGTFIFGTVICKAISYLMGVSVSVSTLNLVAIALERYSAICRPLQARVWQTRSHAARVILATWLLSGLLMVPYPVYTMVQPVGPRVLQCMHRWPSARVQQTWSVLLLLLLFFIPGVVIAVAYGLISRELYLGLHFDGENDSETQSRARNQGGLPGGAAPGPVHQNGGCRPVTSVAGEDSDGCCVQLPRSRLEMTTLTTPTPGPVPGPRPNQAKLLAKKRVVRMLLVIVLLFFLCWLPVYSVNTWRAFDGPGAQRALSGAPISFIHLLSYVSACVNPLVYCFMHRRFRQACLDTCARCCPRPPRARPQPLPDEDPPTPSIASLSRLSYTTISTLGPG
The assay is described as follows: gastrin antagonist activity in an immature rat stomach assay (pentagastrin-stimulated acid secretion). Conditions: cumulative pentagastrin dose-response curves after 60 min with drug; for Kb: read-out: Gastrin pKB (converted). In outline:
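Isolated lumen-perfused immature rat stomach (33-50 g, ca. 21 days) in 37° organ bath with 3×10^-8 M 5-methylfurmethide; acid secretion read by pH electrode in perfusate. Compound added to serosal bath after 120 min stabilisation; cumulative pentagastrin dose-response curves begun 60 min later and analysed by the Black et al. method.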

A further assay addresses T3, CCKA (Cavia porcellus, UniProt Q63931).
T3 construct: The pancreatata were homogenised in 40 ml ice-cold HEPES buffer using a polytron; from tissue; host or cells: pancreas membranes of male Dunkin Hartley guinea-pigs
T3 sequence (Q63931 1-430): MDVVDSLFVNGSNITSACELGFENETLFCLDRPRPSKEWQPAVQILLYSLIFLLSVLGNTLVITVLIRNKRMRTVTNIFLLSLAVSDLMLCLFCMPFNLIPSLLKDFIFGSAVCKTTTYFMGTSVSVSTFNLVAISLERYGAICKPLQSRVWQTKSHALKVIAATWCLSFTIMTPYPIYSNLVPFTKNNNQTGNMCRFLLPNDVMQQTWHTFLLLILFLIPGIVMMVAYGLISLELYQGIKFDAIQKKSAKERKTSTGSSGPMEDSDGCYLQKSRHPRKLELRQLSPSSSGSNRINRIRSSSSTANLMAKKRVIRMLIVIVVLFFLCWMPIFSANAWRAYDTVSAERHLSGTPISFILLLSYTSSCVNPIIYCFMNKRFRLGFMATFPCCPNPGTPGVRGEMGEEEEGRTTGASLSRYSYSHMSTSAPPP
The assay is described as follows: CCKA radioligand binding assay in guinea-pig pancreas membranes ([125I]-CCK8(S)). The note with it: PD134,308 present, 150 minutes at 21±3°; for Ki: read-out: CCKA pKi (converted). In outline: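 Competition for [125I]-CCK8(S) (added as […] solution) ran for 150 min at 21±3° in HEPES pH 7.2. Membranes came from male guinea-pig pancreas at 1 mg/ml original wet weight, with 0.375 μM PD134,308 in the suspension. Filter-bound counts were gamma-counted; 100 nM L-364,718 (added solution) defined non-specific binding.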

`O=C(O)c1cc(NC(=O)[C@H](Cc2ccccc2)NC(=O)c2cc3cc[nH]c3cc2C(=O)NCC2CN3CCC2CC3)cc(C(=O)O)c1` (stereo partly drawn) [Example 108, 5-(1S-(3,5-dicarboxyphenylaminocarbonyl)-2-phenylethylaminocarbonyl)-6-(1-azabicyclo[2.2.2]oct-3-ylmethylaminocarbonyl)-indole]: the Ki at CCKB receptor was 1.26 µM; on CCKA, more than 10 µM. For the same compound, the Kb on gastrin is 0.794 µM.

With `O=C(O)c1cc(NC(=O)[C@H](Cc2ccccc2)NC(=O)c2ccc3[nH]cnc3c2C(=O)NCC23CC4CC(CC(C4)C2)C3)cc(C(=O)O)c1` [Example 112, 5-(1S-(3,5-dicarboxyphenylaminocarbonyl)-2-phenylethylaminocarbonyl)-4-(1-adamantanemethylaminocarbonyl)-benzimidazole], the “CCKB pKi” value at CCKB receptor came out at 8.1. Further, at gastrin, the “Gastrin pKB” value is 8.2. Moreover, the “CCKA pKi” value at CCKA was less than 5.0.

Regarding `O=C(O)c1cc(NC(=O)[C@H](Cc2ccccc2)NC(=O)c2c(C(=O)NCC34CC5CC(CC(C5)C3)C4)ccc3[nH]cnc23)cc(C(=O)O)c1` [Example 113, 4-(1S-(3,5-dicarboxyphenylaminocarbonyl)-2-phenylethylaminocarbonyl)-5-(1-adamantanemethylaminocarbonyl)-benzimidazole], the “CCKB pKi” value at CCKB receptor came to 6.9. Besides, the “Gastrin pKB” value on gastrin turned out to be 7.2. For the same compound, the “CCKA pKi” value on CCKA was determined as 5.2.

Take `Nc1cccc2cc(C(=O)N[C@@H](Cc3ccccc3)C(=O)Nc3cc(C(=O)O)cc(C(=O)O)c3)c(C(=O)NCC34CC5CC(CC(C5)C3)C4)cc12` [Example 115, 2-(1S-(3,5-dicarboxyphenylaminocarbonyl)-2-phenylethylaminocarbonyl)-3-(1-adamantanemethylaminocarbonyl)-5-aminonaphthalene]: on CCKB receptor, the “CCKB pKi” value was 7.6. Moreover, the “Gastrin pKB” value at gastrin amounted to 8.2. Also, the “CCKA pKi” value at CCKA was determined as 5.6.

As to `O=C(NCC12CC3CC(CC(C3)C1)C2)c1cc2nc[nH]c2cc1C(=O)N[C@@H](Cc1ccccc1)C(=O)Nc1cc(C=NO)cc(C=NO)c1` [Example 118, 5-(1S-(3,5-dihydroxyiminomethylenephenylaminocarbonyl)-2-phenylethylaminocarbonyl)-6-(1-adamantanemethylaminocarbonyl)-benzimidazole], the results for the Ki at CCKB receptor and on CCKA were 0.2 µM and 0.501 µM, respectively. On gastrin, the Kb is 0.2 µM.

For the compound `COC(=O)c1cc(NC(=O)[C@H](Cc2ccccc2)NC(=O)c2cc3ccoc3cc2C(=O)NCC23CC4CC(CC(C4)C2)C3)cc(C(=O)OC)c1` [Example 124, 5-(1S-(3,5-dimethoxycarbonylphenylaminocarbonyl)-2-phenylethylaminocarbonyl)-6-(1-adamantanemethylaminocarbonyl)-benzofuran], the “CCKB pKi” value on CCKB receptor is 6.5. Moreover, the “Gastrin pKB” value on gastrin was found to be 6.8. Moreover, the “CCKA pKi” value on CCKA was determined as 5.7.

Regarding `O=C(O)c1cc(NC(=O)[C@H](Cc2ccccc2)NC(=O)c2cc3ccsc3cc2C(=O)NCC23CC4CC(CC(C4)C2)C3)cc(C(=O)O)c1` [Example 125, 5-(1S-(3,5-dicarboxyphenylaminocarbonyl)-2-phenylethylaminocarbonyl)-6-(1-adamantanemethylaminocarbonyl)-benzothiophene], at CCKB receptor, the “CCKB pKi” value turned out to be 8.9. For the same compound, at gastrin, the “Gastrin pKB” value is on record as 9.4. The “CCKA pKi” value at CCKA was 5.7.

Regarding `O=C(O)c1ccc(Cl)c(NC(=O)[C@H](Cc2ccccc2)NC(=O)c2cc3[nH]cnc3cc2C(=O)NCC23CC4CC(CC(C4)C2)C3)c1` [Example 127, 5-(1S-(^2-chloro-5-carboxyphenylaminocarbonyl)-2-phenylethylaminocarbonyl)-6-(1-adamantanemethylaminocarbonyl)-benzimidazole], the Ki at CCKB receptor is 0.0251 µM; at CCKA it was 1.26 µM. In addition, on gastrin, the Kb was 0.0316 µM.

In the case of `O=C(NCC12CC3CC(CC(C3)C1)C2)c1cc2nc[nH]c2cc1C(=O)N[C@@H](Cc1ccccc1)C(=O)Nc1cccc(S(=O)(=O)NC(=O)C(F)(F)F)c1` [Example 128, 5-(1S-(3-trifluoroacetylaminosulphonylphenylaminocarbonyl)-2-phenylethylaminocarbonyl)-6-(1-adamantanemethylaminocarbonyl)-benzimidazole], the results for the Ki at CCKB receptor and on CCKA were 0.00631 µM and 2 µM, respectively. Also, the Kb at gastrin was 0.00251 µM.

On to `O=C(O)c1cc(NC(=O)[C@H](Cc2cccc(F)c2)NC(=O)c2cc3[nH]cnc3cc2C(=O)NCC23CC4CC(CC(C4)C2)C3)cc(C(=O)O)c1` [Example 131, 5-(1S-(3,5-dicarboxyphenylaminocarbonyl)-2-(3-fluorophenyl)ethylaminocarbonyl)-6-(1-adamantanemethylaminocarbonyl)-benzimidazole], for which the Ki was 0.00398 µM at CCKB receptor and 5.01 µM at CCKA. Further, the Kb at gastrin was 0.0002 µM.

In the case of `O=C(O)c1cc(NC(=O)[C@H](Cc2ccc(F)cc2)NC(=O)c2cc3[nH]cnc3cc2C(=O)NCC23CC4CC(CC(C4)C2)C3)cc(C(=O)O)c1` [Example 132, 5-(1S-(3,5-dicarboxyphenylaminocarbonyl)-2-(4-fluorophenyl)ethylaminocarbonyl)-6-(1-adamantanemethylaminocarbonyl)-benzimidazole], the values for the Ki at CCKB receptor and at CCKA were 0.00398 µM and 3.98 µM, respectively. Also, on gastrin, the Kb is 0.001 µM.

Regarding `O=C(O)c1cc(NC(=O)[C@H](Cc2ccc(I)cc2)NC(=O)c2cc3[nH]cnc3cc2C(=O)NCC23CC4CC(CC(C4)C2)C3)cc(C(=O)O)c1` [Example 134, 5-(1S-(3,5-dicarboxyphenylaminocarbonyl)-2-(4-iodophenyl)ethylaminocarbonyl)-6-(1-adamantanemethylaminocarbonyl)-benzimidazole], the Ki at CCKB receptor is 0.0251 µM; on CCKA, 0.794 µM. For the same compound, at gastrin, the Kb is 0.00158 µM.

Consider `O=C(O)c1cc(NC(=O)[C@H](Cc2ccccc2Cl)NC(=O)c2cc3[nH]cnc3cc2C(=O)NCC23CC4CC(CC(C4)C2)C3)cc(C(=O)O)c1` [Example 135, 5-(1S-(3,5-dicarboxyphenylaminocarbonyl)-2-(2-chlorophenyl)ethylaminocarbonyl)-6-(1-adamantanemethylaminocarbonyl)-benzimidazole], for which the “CCKB pKi” value on CCKB receptor was 8.3. On gastrin, the “Gastrin pKB” value amounted to 8.9. Moreover, the “CCKA pKi” value at CCKA is 5.1.
